# Experiments:
# [1] = Step-through passive avoidance learning test; type: in vivo, male ICR strain mouse (5-weeks-old); settings: 3 mg/kg p.o.
# Description: (§1) A male ICR strain mouse (5-weeks-old) was admitted in a bright chamber of a step-through passive avoidance learning device. After 60 seconds, a guillotine door was opened. Just after the mouse entered a dark room, the guillotine door was shut, and a foot shock of 0.15 mA was given to the mouse for 5 seconds. This operation was conducted until the mouse stayed in the bright room for more than 1 minute. Then, the mouse was taken out and 3 mg/kg of the compound of the formula was orally administered, and the mouse was returned to a home cage.
# (§2) After 24 hours, the mouse was admitted into the bright chamber, and after 60 seconds, the guillotine door was opened and the time required for the mouse to enter in the dark room was measured as 300 seconds at longest. Furthermore, 3 mg/kg of the compound of the formula was orally administered, and the spontaneous movement quantity for 4 hours after the oral administration was measured by an animex and the total quantity was calculated. Note, 1% Tween was orally administered to the control group.
# [2] = Spontaneous movement quantity measured by animex; type: in vivo, male ICR strain mouse (5-weeks-old); settings: 3 mg/kg p.o.; 4 hours after administration; control 5123 ± 259
# Description: as §1, §2
# [3] = tested on: locomotor activity by methamphethamine; test: Methamphethamine-induced locomotor activity measured by animex; type: in vivo, male ICR strain mouse (5-weeks-old); settings: 3 mg/kg p.o.
# Description: The compound of the formula (3 mg/kg) was orally administered to a male ICR strain mouse (5-weeks-old), and after 2 hours, 2 mg/kg of methamphethamine was intraperitoneally administered. The locomotor activity for every 15 minutes was measured by an animex, and the measurement was conducted for 120 minutes. To the control group, 1% Tween 80 was administered instead of the compound of the formula, and after 2 hours, 2 mg/kg of methamphethamine was intraperitoneally administered. The locomotor activity was similarly measured.
# [4] = tested on: locomotor activity by scopolamine; test: Scopolamine-induced locomotor activity measured by animex; type: in vivo, male ICR strain mouse (6-weeks-old); settings: 3 mg/kg p.o.
# Description: In the same manner as described in Test Example 2, 3 mg/kg of the compound of the formula was orally administered to a male ICR strain mouse (6-weeks-old), and after 2 hours, 2 mg/kg of scopolamine was intraperitoneally administered. For 120 minutes from the point of the application, the locomotor activity was measured by an animex. To the control group, 1% Tween 80 was orally administered and 2 mg/kg of scopolamine was intraperitoneally administered, and the locomotor activity was similarly measured.
# [5] = tested on: acetylcholine (ACh) content at cerebral cortex; test: ACh content at cerebral cortex (HPLC-ECD), with or without scopolamine; type: in vivo, male ICR strain mouse (9-weeks-old)
# Description: (§3) The compound of the formula was orally administered to a male ICR strain mouse (9-weeks-old), and after 2 hours, 2 mg/kg of scopolamine was applied to the abdominal cavity. After 30 minutes, the mouse was irradiated with 10 KW of microwaves for 0.5 seconds, and the brain was extracted and then divided into two parts, that is, the cerebral cortex (inclusive of hippocampus) and the subcerebral part. The wet weights were measured and the acetylcholine (hereinafter referred to as "ACh") contents were measured according to the following method.
# (§4) Each part of the brain was homogenized by 0.1N perchloric acid (HClO4)and subjected to centrifugal separation under 30000 g for 15 minutes. The supernatant was passed through a 0.45 μm microfilter and poured into HPLC-ECD.
# (§5) The measurement conditions were as follows.
# (§6) Moving phase: phosphate buffer (pH 8.0)
# (§7) Enzyme immobilized column: Eicom AC-Enzmpak
# (§8) Anakyzing column: Eicom AC-ODS (4.6 mm in diameter and 250 mm in length)
# (§9) The compound of the formula was orally administered while scopolamine was not applied, and after 2 hours and 30 minutes, the ACh content was determined in the same manner as described above.
# [6] = tested on: acetylcholine (ACh) content at subcerebral part; test: ACh content at subcerebral part (HPLC-ECD), with or without scopolamine; type: in vivo, male ICR strain mouse (9-weeks-old)
# Description: as §3, §4, §5, §6, §7, §8, §9
# [7] = Acute toxicity by oral administration, rats; settings: rat, in vivo
# [8] = Acute toxicity by oral administration, mice
# [9] = also under the application of scopolamine
structure (smiles),measurement,setting,value
COc1cc2c(c(OC)c1OC)-c1c(cc(OC)c(OC)c1OC)C[C@](C)(O)[C@@H](C)C2 [compound of the formula],avoidance learning function (in words),[1],a reduction of the avoidance learning function is not observed
same,time required for mouse to enter dark room,"[1]; 24 hours after foot shock training, measured as 300 seconds at longest, control 229 ± 30.4",> 300 s
same,sum of spontaneous movement quantity for 4 hours,[2],6693 ± 474
same,locomotor activity by methamphethamine (in words),[3],controls the locomotor activity by methamphethamine
same,locomotor activity after 15 minutes,"[3]; 2 h before 2 mg/kg i.p. methamphethamine, after 15 minutes, control 1250 ± 68",1034 ± 111
same,locomotor activity after 30 minutes,"[3]; 2 h before 2 mg/kg i.p. methamphethamine, after 30 minutes, control 1551 ± 33",1295 ± 34
same,locomotor activity after 45 minutes,"[3]; 2 h before 2 mg/kg i.p. methamphethamine, after 45 minutes, control 1511 ± 32",1245 ± 50
same,locomotor activity after 60 minutes,"[3]; 2 h before 2 mg/kg i.p. methamphethamine, after 60 minutes, control 1429 ± 38",1156 ± 49
same,locomotor activity after 75 minutes,"[3]; 2 h before 2 mg/kg i.p. methamphethamine, after 75 minutes, control 1344 ± 34",1087 ± 40
same,locomotor activity after 90 minutes,"[3]; 2 h before 2 mg/kg i.p. methamphethamine, after 90 minutes, control 1228 ± 44",989 ± 53
same,locomotor activity after 120 minutes,"[3]; 2 h before 2 mg/kg i.p. methamphethamine, after 120 minutes, control 1126 ± 28",898 ± 60
same,locomotor activity by scopolamine (in words),[4],controls the locomotor activity by scopolamine
same,locomotor activity,"[4]; 2 h before 2 mg/kg i.p. scopolamine, for 120 minutes, control 6353±296",3991±389
same,ACh content at cerebral cortex,"[5]; 3 mg/kg p.o., 2 mg/kg scopolamine after 2 h, scopolamine alone 11.4",13.9 nM/g of wet weight
same,ACh content at cerebral cortex,"[5]; 3 mg/kg p.o., no scopolamine, 2 h 30 min, untreated 15.7",20.9 nM/g of wet weight
same,ACh content at cerebral cortex,"[5]; 30 mg/kg p.o., 2 mg/kg scopolamine after 2 h, scopolamine alone 11.4",13.7 nM/g of wet weight
same,ACh content at cerebral cortex,"[5]; 30 mg/kg p.o., no scopolamine, 2 h 30 min, untreated 15.7",21.7 nM/g of wet weight
same,ACh content at cerebral cortex (in words),[5]; [9],increases the ACh contents at the cerebral cortex
same,ACh content at subcerebral part,"[6]; 3 mg/kg p.o., 2 mg/kg scopolamine after 2 h, scopolamine alone 23.3",26.9 nM/g of wet weight
same,ACh content at subcerebral part,"[6]; 3 mg/kg p.o., no scopolamine, 2 h 30 min, untreated 27.8",35.0 nM/g of wet weight
same,ACh content at subcerebral part,"[6]; 30 mg/kg p.o., 2 mg/kg scopolamine after 2 h, scopolamine alone 23.3",26.1 nM/g of wet weight
same,ACh content at subcerebral part,"[6]; 30 mg/kg p.o., no scopolamine, 2 h 30 min, untreated 27.8",38.9 nM/g of wet weight
same,ACh content at subcerebral part (in words),[6]; [9],increases the ACh contents at the cerebral cortex and the subcerebral part
same,LD50,[7],900 mg/kg
same,LD50,"[8]; mouse, in vivo, po",900 mg/kg
same,toxicity (in words),"[8]; oral acute toxicity, mice and rats",low toxicity

# Source: patent US5026733A, “Brain function-improving medicine” (Tsumura & Co., priority 1988, dated 1991)
